From patent US8871728B2, “Non-peptide macrocyclic histone deacetylese (HDAC) inhibitors and methods of making and using thereof” (Georgia Tech Research Corporation, priority 2007, dated 2014)
Converted amounts (≈) assume the structure as drawn. “And” between values parts separate entries of the source, which are not always exact repeats. Equal values may be shown once. Read-outs that look alike come from different tables or passages of the source.

Experiments:
[1] = system: HeLa nuclear extract HDAC1/2; experiment: Fluor de Lys HDAC inhibition, HeLa nuclear extract; assay type: biochemical, human; conditions: HeLa nuclear extract; average of three independent experiments; Table 4; read-out: HDAC ½
Text: Fluor de Lys™ is a fluorescence based HDAC activity assay comprising a combination of fluorogenic Histone deAcetylase Lysyl substrate and a developer. The kit is a highly sensitive and convenient alternative to radiolabeled, acetylated histones or peptide/HPLC methods for the assay of histone deacetylases. This assay is based on the ability of HeLa nuclear extract, which is enriched in HDAC activity, to mediate the deacetylation of the acetylated lysine side chain of the Fluor de Lys substrate. The assay procedure requires two steps. First, incubation of the HeLa nuclear extract with the Fluor de Lys substrate results in substrate deacetylation and thus sensitizes it to the second step. In the second step, treatment of the deacetylated substrate with the Fluor de Lys developer produces a fluorophore. The substrate-developer reaction, under normal circumstances goes to completion in less than 1 min at 25° C. The kit used was the Fluorimetric Assay/Drug Discovery Kit—AK-500 Manual Fluorescent Assay System available from BIOMOL® International, Plymouth Meeting, Pa.
Each IC50 value was obtained by averaging three independent experiments.

[2] = biological target: T1, HDAC8 (Homo sapiens (Human), UniProt Q9BY41); experiment: Fluor de Lys HDAC8 inhibition; assay type: biochemical; conditions: average of three independent experiments; Table 4; read-out: HDAC 8
T1 sequence (Q9BY41 whole entry): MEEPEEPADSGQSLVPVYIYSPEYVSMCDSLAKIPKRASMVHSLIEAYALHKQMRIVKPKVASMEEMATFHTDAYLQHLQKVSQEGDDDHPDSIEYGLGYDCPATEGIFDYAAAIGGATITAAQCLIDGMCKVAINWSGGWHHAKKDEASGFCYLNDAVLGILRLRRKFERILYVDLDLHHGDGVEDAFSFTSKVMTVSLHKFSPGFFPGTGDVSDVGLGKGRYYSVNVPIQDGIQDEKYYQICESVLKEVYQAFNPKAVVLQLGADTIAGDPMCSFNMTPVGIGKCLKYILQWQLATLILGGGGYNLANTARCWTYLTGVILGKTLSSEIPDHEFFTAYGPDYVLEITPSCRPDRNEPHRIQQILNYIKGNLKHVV

[3] = system: DU 145 cells; experiment: Cell viability, trypan blue exclusion; assay type: cell-based; conditions: Homo sapiens
Text: (§1) Most importantly, the compounds we less toxic to untransformed cell-lines (lung fibroblast and HMEC).
(§2) Most importantly, these compounds are less toxic to untransformed cell-lines (lung fibroblast and HMEC) that we have studied to date.

[4] = system: HMEC; experiment: Cell viability, trypan blue exclusion; assay type: cell-based; conditions: Homo sapiens; untransformed cells
Text: as §1, §2

[5] = system: NCI-H69; experiment: Cell viability, trypan blue exclusion; assay type: cell-based; conditions: Homo sapiens
Text: as §1, §2

[6] = system: SKMES 1; experiment: Cell viability, trypan blue exclusion; assay type: cell-based; conditions: Homo sapiens, SK-MES-1
Text: as §1, §2

[7] = system: lung fibroblasts; experiment: Cell viability, trypan blue exclusion; assay type: cell-based; conditions: Fibroblast; untransformed cells
Text: as §1, §2

[8] = biological target: HDAC1 (Homo sapiens (Human), UniProt Q13547); experiment: SAMDI mass spectrometry HDAC inhibition assay; assay type: biochemical; conditions: for HDAC1 inhibition, symbol: SAMDI; for HDAC1 % inhibition: at 10 μM, given if the IC50 was above 10 μM
Sequence of HDAC1 (Q13547 whole entry): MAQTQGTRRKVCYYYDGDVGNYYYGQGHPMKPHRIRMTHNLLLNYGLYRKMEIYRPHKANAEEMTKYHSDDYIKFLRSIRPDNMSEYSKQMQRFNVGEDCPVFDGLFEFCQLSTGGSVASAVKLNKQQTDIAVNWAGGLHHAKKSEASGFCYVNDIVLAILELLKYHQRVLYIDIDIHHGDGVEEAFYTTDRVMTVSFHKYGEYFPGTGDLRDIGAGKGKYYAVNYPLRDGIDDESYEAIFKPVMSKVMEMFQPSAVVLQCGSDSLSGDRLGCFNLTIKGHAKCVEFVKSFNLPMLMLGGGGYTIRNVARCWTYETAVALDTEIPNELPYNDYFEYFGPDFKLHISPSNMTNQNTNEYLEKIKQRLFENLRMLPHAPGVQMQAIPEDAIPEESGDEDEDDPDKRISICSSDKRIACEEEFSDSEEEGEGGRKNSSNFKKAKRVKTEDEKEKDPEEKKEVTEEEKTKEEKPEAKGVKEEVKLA
Procedure: (§3) There is precedence that fluorescently labeled substrates can perturb enzyme activity and the effect of inhibitors. […] Additionally, 3-hydroxypyridine-2-ones are highly colored solids and might lead to false positive signals. Mindful of these facts, a label-free SAMDI (self-assembled monolayers for MALDI) mass spectrometry assay was also used to assess HDAC inhibition.
(§4) The SAMDI technique, wherein self-assembled monolayers (SAM) of alkanethiolates on gold are analyzed by matrix assisted laser desorption/ionization (MALDI) mass spectrometry, has been widely used to characterize many biochemical activities, including the deacetylase enzyme family.

[9] = biological target: T1, HDAC8; experiment: SAMDI mass spectrometry HDAC inhibition assay; assay type: biochemical
Procedure: as §3, §4

[10] = biological target: HDAC6 (Homo sapiens (Human), UniProt Q9UBN7); experiment: SAMDI mass spectrometry HDAC inhibition assay; assay type: biochemical; conditions: for inhibition at 10 µM: read-out: HDAC6 % inhibition
Sequence of HDAC6 (Q9UBN7 whole entry): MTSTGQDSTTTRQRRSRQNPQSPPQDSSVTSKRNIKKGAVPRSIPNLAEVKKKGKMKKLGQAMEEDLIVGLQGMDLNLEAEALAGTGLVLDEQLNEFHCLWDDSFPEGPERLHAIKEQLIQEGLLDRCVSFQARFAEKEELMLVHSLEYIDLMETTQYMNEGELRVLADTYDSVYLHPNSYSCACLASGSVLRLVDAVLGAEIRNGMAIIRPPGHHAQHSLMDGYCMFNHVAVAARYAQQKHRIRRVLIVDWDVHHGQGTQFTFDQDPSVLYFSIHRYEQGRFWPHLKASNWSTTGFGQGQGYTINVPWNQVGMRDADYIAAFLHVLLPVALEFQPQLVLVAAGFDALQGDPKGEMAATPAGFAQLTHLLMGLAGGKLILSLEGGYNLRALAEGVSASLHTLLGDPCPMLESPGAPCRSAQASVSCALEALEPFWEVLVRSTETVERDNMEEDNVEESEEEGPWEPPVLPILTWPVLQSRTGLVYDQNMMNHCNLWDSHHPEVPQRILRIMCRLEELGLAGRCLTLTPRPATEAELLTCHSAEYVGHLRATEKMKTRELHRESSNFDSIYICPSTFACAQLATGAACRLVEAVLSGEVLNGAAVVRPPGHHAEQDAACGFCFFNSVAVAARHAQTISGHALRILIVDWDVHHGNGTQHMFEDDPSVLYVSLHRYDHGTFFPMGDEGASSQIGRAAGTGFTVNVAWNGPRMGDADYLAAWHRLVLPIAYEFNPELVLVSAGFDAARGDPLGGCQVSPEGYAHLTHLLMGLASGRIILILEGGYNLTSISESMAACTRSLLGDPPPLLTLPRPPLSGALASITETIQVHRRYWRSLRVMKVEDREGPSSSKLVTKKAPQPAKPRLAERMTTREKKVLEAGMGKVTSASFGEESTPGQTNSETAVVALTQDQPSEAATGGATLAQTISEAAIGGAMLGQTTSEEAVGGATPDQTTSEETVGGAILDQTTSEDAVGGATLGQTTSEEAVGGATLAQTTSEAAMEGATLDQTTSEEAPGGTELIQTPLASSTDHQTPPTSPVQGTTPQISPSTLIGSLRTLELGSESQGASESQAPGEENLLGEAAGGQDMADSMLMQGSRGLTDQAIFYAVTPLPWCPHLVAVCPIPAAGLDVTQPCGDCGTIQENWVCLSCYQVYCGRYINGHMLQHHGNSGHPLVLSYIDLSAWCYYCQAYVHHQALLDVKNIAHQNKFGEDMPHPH
Procedure: as §3
as §4, with “family. The SAMDI assay was used to measure the inhibition constant (K1) of fragments against HDAC1, HDAC6 and HDAC8 using a previously identified preferred HDAC substrate.” for “family.”

[11] = system: DU 145 (androgen independent prostate cancer); experiment: Anti-cancer activity screen; assay type: cell-based
[12] = system: LNCaP (androgen dependent prostate cancer); experiment: Anti-cancer activity screen; assay type: cell-based
[13] = system: Jurkat (T cell leukemia overexpressing HDAC8); experiment: Anti-cancer activity screen; assay type: cell-based
[14] = system: promastigote stage of L. donovani; experiment: Antileishmanial Alamar blue fluorometric assay; assay type: cell-based
Procedure: (§5) The compounds described herein were also evaluated for parasitic activity against Plasmodium falciparum and Leismania donovani. P. falciparum and L. donovani are the causative parasites of malaria and leishmaniasis, two human diseases which constitute a serious threat to public health in tropical and sub-tropical countries. Antimalarial activity was evaluated in vitro using chloroquine-sensitive (D6, Sierra Leone) and chloroquine-resistant (W2, Indochina) strains of P. falciparum. Antileishmanial activity was evaluated in vitro against the promastigote stage of L. donovani.
(§6) Plasmodium growth inhibition was determined by a parasite lactate dehydrogenase assay using Malstat reagent. Inhibition of viability of the promastigote stage of L. donovani was determined using standard Alamar blue assay, modified to a fluorometric assay.
as §5, with “Macrocyclic histone deacetylase inhibitors” for “The compounds described herein”, “were” for “were also”
as §6

[15] = system: Plasmodium falciparum (D6 clone), chloroquine-sensitive; experiment: Plasmodium growth inhibition, parasite lactate dehydrogenase assay (Malstat); assay type: cell-based; conditions: selective toxicity index, Vero versus D6
Procedure: as §5, §6
as §5, with “Macrocyclic histone deacetylase inhibitors” for “The compounds described herein”, “were” for “were also”
as §6

[16] = Table 14, read-out: HDAC 8 (nm)
[17] = Homo sapiens, DU-145, calculated IC50 above 20 μM (highest concentration tested) also reported as >20
[18] = calculated IC50 above 20 μM (highest concentration tested) also reported as >20
[19] = Homo sapiens, Jurkat, read-out: Jurkat (μm)
[20] = Table 14, read-out: HDAC 6 (nm)

SMILES	IC50 [1]	IC50 [2]	EC50 [3]	EC50 [4]	EC50 [5]	EC50 [6]	EC50 [7]	HDAC1 inhibition, symbol [8]	IC50 [9, 16]	IC50 [11, 17]	IC50 ([12]; Homo sapiens, LNCaP)	IC50 [10, 20]	further results
CC[C@H]1OC(=O)[C@H](C)[C@@H](O[C@H]2C[C@@](C)(OC)[C@@H](O)[C@H](C)O2)[C@H](C)[C@@H](O[C@@H]2O[C@H](C)C[C@H](N(C)Cc3ccc(-c4cn(CCCCCC(=O)NO)nn4)cc3)[C@H]2O)[C@](C)(OC)C[C@@H](C)C(=O)[C@H](C)[C@@H](O)[C@]1(C)O [Compound 23, Clarithromycin-N-phenyltriazolylhexahydroxamic acid]	0.037 µM	3.99 µM	2.98 µM	> 10 µM	2.67 µM	2.15 µM	> 10 µM						
CC[C@H]1OC(=O)[C@H](C)[C@@H](O)[C@H](C)[C@@H](O[C@@H]2O[C@H](C)C[C@H](N(C)Cc3ccc(-c4cn(CCCCCC(=O)NO)nn4)cc3)[C@H]2O)[C@](C)(OC)C[C@@H](C)C(=O)[C@H](C)[C@@H](O)[C@]1(C)O [Compound 24, Descladinose-Clarithromycin-N-phenyltriazolylhexahydroxamic acid]	0.0443 µM	4.75 µM	3.29 µM	> 10 µM	1.92 µM	1.95 µM	> 10 µM						
CC[C@H]1OC(=O)[C@H](C)[C@@H](O[C@H]2C[C@@](C)(OC)[C@@H](O)[C@H](C)O2)[C@H](C)[C@@H](O[C@@H]2O[C@H](C)C[C@H](N(C)Cc3ccc(-c4cn(CCCCCCC(=O)NO)nn4)cc3)[C@H]2O)[C@](C)(OC)C[C@@H](C)C(=O)[C@H](C)[C@@H](O)[C@]1(C)O [Compound 25, Clarithromycin-N-phenyltriazolylheptahydroxamic acid]	0.00409 µM	1.89 µM	1.12 µM	> 10 µM	1.45 µM	1.33 µM	> 10 µM						
CC[C@H]1OC(=O)[C@H](C)[C@@H](O)[C@H](C)[C@@H](O[C@@H]2O[C@H](C)C[C@H](N(C)Cc3ccc(-c4cn(CCCCCCC(=O)NO)nn4)cc3)[C@H]2O)[C@](C)(OC)C[C@@H](C)C(=O)[C@H](C)[C@@H](O)[C@]1(C)O [Compound 26, Descladinose-Clarithromycin-N-phenyltriazolylheptahydroxamic acid]	0.00187 µM	1.39 µM	1.05 µM	> 10 µM	1.49 µM	1.28 µM	> 10 µM						
CC[C@H]1OC(=O)[C@H](C)[C@@H](O[C@H]2C[C@@](C)(OC)[C@@H](O)[C@H](C)O2)[C@H](C)[C@@H](O[C@@H]2O[C@H](C)C[C@H](N(C)Cc3ccc(-c4cn(CCCCCCCC(=O)NO)nn4)cc3)[C@H]2O)[C@](C)(OC)C[C@@H](C)C(=O)[C@H](C)[C@@H](O)[C@]1(C)O [Compound 27, Clarithromycin-N-Phenyltriazolyloctahydroxamic acid]	0.0556 µM	5.88 µM	6.97 µM	> 10 µM	5.67 µM	4.89 µM	> 10 µM						
N#Cc1ccccc1-c1ccc(Cn2cccc(O)c2=S)cc1 [Compound 149c, 1-(2-Cyano-(1,1′-biphenylmethyl))-3-hydroxyoxypyridine-2-thione]								NI (No significant Inhibition (below 20% Inhibition))	1.91 ± 0.771 µM	30 ± 5.85 µM	14.7 ± 0.84 µM		IC50 ([9]; SAMDI, read-out: HDAC8 IC50): 1.91 ± 0.771 µM; IC50 ([9]; SAMDI, read-out: HDAC8 activity (IC50)): ~2 µM; IC50 ([10]; SAMDI, read-out: HDAC6 IC50): 0.372 ± 0.035 µM; IC50 [11, 18]: > 20 µM; IC50 [13, 19]: 8.95 ± 0.69 µM
Cc1ccccc1-c1ccc(Cn2cccc(O)c2=S)cc1 [Compound 149f, 1-(2-Methyl-(1,1′-biphenylmethyl))-3-hydroxyoxypyridine-2-thione]								NI (No significant Inhibition (below 20% Inhibition))		13.6 ± 2.91 µM	7.75 ± 0.73 µM	0.306 ± 0.069 µM	
CN(C)c1ccc(-c2ccc(Cn3cccc(O)c3=S)cc2)cc1 [Compound 149g, 1-(4-Dimethylamino-(1,1′-biphenylmethyl))-3-hydroxyoxypyridine-2-thione]								NI (No significant Inhibition (below 20% Inhibition))	2.86 ± 0.944 µM	> 20 µM	16.2 ± 1.11 µM		HDAC6 inhibition, symbol ([10]; SAMDI): NI (No significant Inhibition (below 20% Inhibition)); IC50 [11, 18]: 22.8 ± 3.8 µM; IC50 [13, 19]: 10.6 ± 0.97 µM
Oc1cccn(Cc2cn(-c3ccccc3)nn2)c1=S [Compound 154a, 1-Phenyltriazolylmethyl-3-hydroxypyridine-2-thione]										24 ± 7.47 µM	13.1 ± 1.51 µM		inhibition at 10 µM [10]: 41%; IC50 [11, 18]: > 20 µM; IC50 [13, 19]: 4.68 ± 0.34 µM
Oc1cccn(CCCCCn2cc(-c3ccccc3)nn2)c1=S [Compound 162d, 1-Phenyltriazolylpentyl-3-hydroxypyridine-2-thione]								NI (No significant Inhibition (below 20% Inhibition))	0.917 ± 0.139 µM			0.911 ± 0.173 µM	HDAC1 % inhibition [8]: 30%; HDAC8 activity difference between 162d and 162e ([9]; SAMDI): ~7 fold; IC50 ([9]; SAMDI, read-out: HDAC8 IC50): 0.917 µM; IC50 ([10]; SAMDI, read-out: HDAC6 IC50): 0.911 µM; IC50 [11]: 9.33 ± 0.96 µM; IC50 [12]: 5.43 ± 0.47 µM; IC50 ([13]; read-out: Jurkat (μm)): 3.27 ± 0.6 µM
Oc1cccn(CCCCCCCn2cc(-c3ccccc3)nn2)c1=S [Compound 162f, 1-Phenyltriazolylheptyl-3-hydroxypyridine-2-thione]								NI (No significant Inhibition (below 20% Inhibition))	1.38 ± 0.205 µM			0.955 ± 0.15 µM	HDAC1 % inhibition [8]: 35%; IC50 ([9]; SAMDI, read-out: HDAC8 IC50): 0.232 ± 0.019 µM; IC50 ([10]; SAMDI, read-out: HDAC6 IC50): 0.955 ± 0.15 µM; IC50 [11]: 17.7 ± 3.28 µM; IC50 [12]: 11 ± 1.92 µM; IC50 ([13]; read-out: Jurkat (μm)): 9.04 ± 1.31 µM
N#Cc1cccc(-c2cn(CCCCCn3cccc(O)c3=S)nn2)c1 [Compound 167e, 1-(3-Benzonitrile)triazolylpentyl-3-hydroxypyridine-2-thione]									2.4 ± 0.263 µM		4.95 ± 0.43 µM	0.637 µM and 0.356 µM	IC50 ([9]; SAMDI, read-out: HDAC8 IC50): 2.83 µM; IC50 ([10]; SAMDI, read-out: HDAC6 IC50): 0.356 µM; IC50 [12]: 3.49 ± 0.34 µM; IC50 [13, 19]: 5.18 ± 1.18 µM; IC50 ([13]; read-out: Jurkat (μm)): 3.44 ± 0.57 µM
Oc1cccn(Cc2ccc(Cn3cc(-c4ccccc4)nn3)cc2)c1=S [Compound 168]								NI (No significant Inhibition (below 20% Inhibition))	5.47 ± 1.6 µM	16.1 ± 2.24 µM	7.8 ± 0.55 µM	0.534 ± 0.185 µM	IC50 ([13]; Homo sapiens, Jurkat; read-out: Jurkat (μm)): 6.55 ± 0.91 µM
N=C(N)c1ccc(OCCCCCOc2ccc(C(=N)N)cc2)cc1 [Pentamidine, pentamidine, reference compound]													IC50 ([14]; Leishmania donovani, promastigotes, read-out: Antileshmanial activity IC50): 0.9 mg/L (≈ 2.64 µM); Antileshmanial activity IC50 ([14]; promastigotes): 1.4 mg/L
O=C(CCCCCCC(=O)Nc1ccccc1)NO [SAHA, suberoylanilide hydroxamic acid, reference compound]													IC90 ([14]; Leishmania donovani, read-out: Antileshmanial activity IC90 (μg/ml)): 50 µg/mL (≈ 189 µM); S.I. D6 [15]: 4.8; inhibition at 10 µM [10]: 95%
